{
  "source": "patent US20080182835A1",
  "about": "(priority 2006, published 2008)",
  "key": {"[1]": {"test_system": "BHK cells infected with Sindbis virus", "assay": "Cell viability of Sindbis-infected BHK cells, Trypan blue dye-exclusion and light microscopy", "type": "cell-based, hamster", "details": "for cell viability (viable cell count): 48 hour infection", "protocol": "Additional cell viability studies were done using a combined assessment of cellular morphology via light microscopy, or visual inspection of cell viability, and plasma membrane integrity measurements using a Trypan blue dye-exclusion assay. Specifically, BHK cells were seeded to the wells of a 96-well plate (2×10^4 cells/well) and cultured overnight in complete growth medium. […] After a 48 hour infection period, the cells were resuspended and an aliquot of cells (10 μL) was mixed with 90 μL 0.2% trypan blue. The number of viable cells was determined by counting with a hemocytometer.\nAlso, a corresponding set of wells was identically prepared exclusively for observation using Trypan blue staining and light microscopy. FIGS. 6A-6H are light microscopy images showing cell morphology at various concentrations of Co(NH3)6 at 48 hours post infection following 6 hours of pretreatment with Co(NH3)6. […] Viable cells remain attached to the tissue culture substrate and have an elongated, epithelial cell-like appearance. The arrows in FIGS. 6E-6G indicate examples of cells that have retained an elongated and adherent morphology. Non-viable cells are detached from the tissue culture substrate and are rounded. FIGS. 6B-6H illustrate that pronounced cell death is apparent in the presence of no Co(NH3)6 (FIG. 6B) and at lower concentrations of Co(NH3)6 (FIGS. 6C and 6D)."}, "SV-infected BHK cells": {"test_system": "SV-infected BHK cells", "assay": "Flow cytometry propidium iodide viability of Sindbis-infected BHK cells", "type": "cell-based, hamster"}},
  "data": [
    {"substance": "Co(NH3)6", "values": [
      {"measurement": "cell viability (viable cell count)", "setting": "[1]; Sindbis-infected, 6 hours pretreatment, at 1.2 mM", "value": 80, "unit": "%"},
      {"measurement": "cell viability (viable cell count)", "setting": "[1]; Sindbis-infected, at 0.15 mM", "value": "further decreased viability"},
      {"measurement": "cell morphology, viable cells by light microscopy", "setting": "[1]; Sindbis-infected, 48 hours post infection, at 0.6 and 1.2 mM", "value": "viable cells appeared more pronounced"},
      {"measurement": "concentration providing optimal protection against Sindbis virus", "setting": "[1]; light microscopy and cell viability count", "value": 1.2, "unit": "mM"},
      {"measurement": "percentage of PI-positive (non-viable) cells", "setting": "SV-infected BHK cells; at 0.15 mM, relative to untreated infected cells", "value": "significantly lower percentage"},
      {"measurement": "effect of timing of treatment on survivability of the cells", "setting": "SV-infected BHK cells; pretreatment, co-infection, 2, 4 and 24 hours post-infection", "value": "very little effect"}
    ]}
  ]
}
